pIC50: −log10 of the molar value.
What was measured:
[1] = target: T1, PRMT5 (Homo sapiens, UniProt O14744); assay: PRMT5 biochemical IC50 assay with MTA as cofactor; conditions: PRMT5, MTA as cofactor; read-out: MTA IC50
T1 construct: purchased Viva (custom protein)

[2] = test system: HAP1 MTAP-deleted cell line; assay: Viability assay, MTAP-deleted cell line; assay type: cell-based; conditions: Homo sapiens, read-out: HAP1 MTAP deleted viability
Excerpt: Table 1 additionally indicates IC50 values in a viability assay for the MTAP-deleted cell line (column 10), indicating the effect of treatment with compound on cell survival.

[3] = test system: HAP1 MTAP-intact cell line; assay: SDMA in-cell western assay, HAP1 MTAP-intact; assay type: cell-based; conditions: Homo sapiens, HAP1, SDMA in-cell western, HAP1 MTAP-intact; read-out: MTAP HAP1 intact IC50
In short: (§1)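 MTAP-null vs endogenous-MTAP HAP1 isogenic cells; in-cell western SDMA readout; IC50 per line.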

[4] = target: T1, PRMT5; assay: PRMT5 biochemical IC50 assay with no cofactor; conditions: PRMT5, no cofactor
Excerpt: Table 1 indicates IC50 values (μM) against PRMT5 for exemplary compounds in the presence of SAM as cofactor, with no cofactor, and with MTA as cofactor, respectively (columns 4-6). […] Ki values can be calculated from the IC50 values as described in the Examples section. As detailed in the Examples section, for the assay performed in the presence of SAM, IC50=Ki×1.5 (Ki=IC50/1.5).

[5] = test system: HAP1 MTAP-deleted cell line; assay: SDMA in-cell western assay, HAP1 MTAP-deleted; assay type: cell-based; conditions: for pIC50: Homo sapiens, HAP1, SDMA in-cell western, HAP1 MTAP-deleted; for MTAP intact/deleted ratio: SDMA in-cell western
In short: as §1

[6] = target: T1, PRMT5; assay: PRMT5 biochemical IC50 assay with SAM as cofactor; conditions: PRMT5, SAM as cofactor; read-out: SAM IC50
[7] = HAP1, viability, HAP1 MTAP-deleted cell line
[8] = read-out: No Cofactor/ rel IC50
[9] = read-out: HAP 1 MTAP deleted IC50
[10] = IC50 ratio HAP1 MTAP-intact / HAP1 MTAP-deleted
[11] = HAP1, viability assay, MTAP-deleted cell line
[12] = read-out: HAP1 MTAP deleted IC50
[13] = HAP1, viability assay, HAP1 MTAP-deleted
[14] = IC50 ratio HAP1 MTAP-intact vs HAP1 MTAP-deleted

T1 sequence (O14744 whole entry): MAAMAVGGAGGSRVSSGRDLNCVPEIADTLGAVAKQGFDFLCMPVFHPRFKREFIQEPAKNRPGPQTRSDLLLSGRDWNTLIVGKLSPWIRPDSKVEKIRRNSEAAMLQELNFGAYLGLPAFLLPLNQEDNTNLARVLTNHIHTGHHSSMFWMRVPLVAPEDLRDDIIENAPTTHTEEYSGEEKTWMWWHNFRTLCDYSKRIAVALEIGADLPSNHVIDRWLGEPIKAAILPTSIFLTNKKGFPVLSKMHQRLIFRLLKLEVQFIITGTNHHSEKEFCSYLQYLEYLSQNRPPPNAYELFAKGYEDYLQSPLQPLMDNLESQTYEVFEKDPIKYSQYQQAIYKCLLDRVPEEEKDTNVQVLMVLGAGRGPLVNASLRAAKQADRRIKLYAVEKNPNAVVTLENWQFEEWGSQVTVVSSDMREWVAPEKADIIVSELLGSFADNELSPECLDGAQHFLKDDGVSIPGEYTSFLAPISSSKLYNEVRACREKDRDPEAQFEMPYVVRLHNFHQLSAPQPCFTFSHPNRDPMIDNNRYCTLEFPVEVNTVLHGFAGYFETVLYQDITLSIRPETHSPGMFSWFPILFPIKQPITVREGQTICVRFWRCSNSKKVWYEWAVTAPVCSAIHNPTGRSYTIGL
T1 sequence (Q9BQA1 whole entry partner): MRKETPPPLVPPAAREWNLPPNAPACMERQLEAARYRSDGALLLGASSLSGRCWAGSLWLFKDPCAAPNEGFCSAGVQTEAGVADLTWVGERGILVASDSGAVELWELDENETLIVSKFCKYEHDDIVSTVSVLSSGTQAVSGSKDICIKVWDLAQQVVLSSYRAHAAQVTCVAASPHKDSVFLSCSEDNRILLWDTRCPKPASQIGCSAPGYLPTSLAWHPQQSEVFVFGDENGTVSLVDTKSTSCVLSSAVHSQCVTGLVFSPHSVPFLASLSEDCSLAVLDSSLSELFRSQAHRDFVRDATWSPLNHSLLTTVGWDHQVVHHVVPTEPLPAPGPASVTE

pIC50 [1] | pIC50 [3] | pIC50 [4, 8] | pIC50 [5, 9] | pIC50 [6] | pIC50 ([4]; read-out: No Cofactor/rel IC50) | pIC50 [5, 12] | Structure (SMILES) | pIC50 [2, 7] | MTAP intact/deleted ratio [5, 10] | pIC50 [2, 11] | pIC50 [2, 13] | MTAP intact/deleted ratio [5, 14]
> 7.30 | > 7.00 | > 7.30 | > 7.00 | 6.30 to 7.30 |  |  | CCc1cc(NC(=O)C(=O)N2C[C@@H](C)CC[C@@H]2c2ccc3cc(C)c(C4CCN(C)CC4)nc3c2)cnc1N [Compound 1368, N-(6-amino-5-ethyl-3-pyridyl)-2-oxo-2-[(2R,5S)-5-methyl-2-[3-methyl-2-(1-methyl-4-piperidyl)-7-quinolyl]-1-piperidyl]acetamide] | > 6.00 | A (an IC50 ratio greater than or equal to 10 fold) |  |  | 
> 7.30 | > 7.00 | > 7.30 | > 7.00 | > 7.30 |  |  | C[C@H]1CC[C@H](c2ccc3[nH]ncc3c2)N(C(=O)C(=O)Nc2cnc(N)c(C3CC3)c2)C1 (single isomer, unassigned) [Compound 1251] | > 6.00 | A (an IC50 ratio greater than or equal to 10 fold) |  |  | 
< 6.30 | < 6.00 |  |  | < 6.30 | < 6.30 | < 6.00 | C[C@@H]1[C@@H](C)CC[C@H](c2ccccc2)N1C(=O)C(=O)Nc1cncc(C(N)=O)c1 (single isomer, unassigned) [Compound 483] |  | C (an IC50 ratio of less than 3 fold) | < 5.00 |  | 
< 6.30 | < 6.00 |  |  | < 6.30 | < 6.30 | < 6.00 | COc1ncc(NC(=O)C(=O)N2C[C@@H](C)CC[C@@H]2c2ccn(-c3cc[nH]n3)n2)cc1C(N)=O (single isomer, unassigned) [Compound 881] |  | B (an IC50 ratio greater than or equal to 3 fold but lower than 10 fold) |  | < 5.00 | 
> 7.30 | < 6.00 |  |  | 6.30 to 7.30 | 6.30 to 7.30 | > 7.00 | COc1cccc([C@@H]2CC[C@@H](C)CN2C(=O)C(=O)Nc2cncc(C(N)=O)c2)c1 (racemic) [Compound 214, rac-5-{2-[(2R,5S)-2-(3-Methoxyphenyl)-5-methylpiperidin-1-yl]-2-oxoacetamido}pyridine-3-carboxamide] |  |  | 5.00 to 6.00 |  | 
> 7.30 | < 6.00 | 6.30 to 7.30 | 6.00 to 7.00 | 6.30 to 7.30 |  |  | Cc1ccc2cc([C@@H]3CC[C@@H](C)CN3C(=O)C(=O)Nc3cncc(C(N)=O)c3)ccc2n1 (racemic) [Compound 167, rac-5-{2-[(2R,5S)-5-Methyl-2-(2-methylquinolin-6-yl)piperidin-1-yl]-2-oxoacetamido}pyridine-3-carboxamide] |  | A (an IC50 ratio greater than or equal to 10 fold) | 5.00 to 6.00 |  | 
> 7.30 | < 6.00 |  |  | 6.30 to 7.30 | 6.30 to 7.30 | 6.00 to 7.00 | CC(C)[C@@H]1CC[C@@H](C)CN1C(=O)C(=O)Nc1cncc(C(N)=O)c1 (racemic) [Compound 176, 5-[[2-[(2S,5R)-2-isopropyl-5-methyl-1-piperidyl]-2-oxo-acetyl]amino]pyridine-3-carboxamide] |  | A (an IC50 ratio greater than or equal to 10 fold) | < 5.00 |  | 
> 7.30 | > 7.00 | > 7.30 | > 7.00 | 6.30 to 7.30 |  |  | CCc1cc(NC(=O)C(=O)N2C[C@@H](C)CC[C@@H]2c2ccc3sc([C@@H]4CCN(C)C4)nc3c2)cnc1N (single isomer, unassigned) [Compound 1308] | > 6.00 | A (an IC50 ratio greater than or equal to 10 fold) |  |  | 
6.30 to 7.30 | 6.00 to 7.00 |  |  | < 6.30 | 6.30 to 7.30 | > 7.00 | Cc1cc(NC(=O)C(=O)N2C[C@H](C)CC[C@H]2c2ccc(-c3cn[nH]c3)cc2)cnc1N (racemic) [Compound 525, rac N-(6-amino-5-methyl-3-pyridyl)-2-[(2S,5R)-5-methyl-2-[4-(1H-pyrazol-4-yl)phenyl]-1-piperidyl]-2-oxo-acetamide] |  | A (an IC50 ratio greater than or equal to 10 fold) | > 6.00 |  | 
> 7.30 | > 7.00 |  |  | > 7.30 | > 7.30 | > 7.00 | C[C@H]1CC[C@H](c2ccc3sc(C4CCN(C)CC4)nc3c2)N(C(=O)C(=O)Nc2cnc(N)c([C@@H]3CCOC3)c2)C1 (single isomer, unassigned) [Compound 1154] |  |  | > 6.00 |  | A (an IC50 ratio greater than or equal to 10 fold)
> 7.30 | < 6.00 |  |  | 6.30 to 7.30 | 6.30 to 7.30 | > 7.00 | CC1(C)CCC[C@@H]2CN(C(=O)C(=O)Nc3cncc(C(N)=O)c3)CC[C@H]21 (single isomer, unassigned) [Compound 193] |  | A (an IC50 ratio greater than or equal to 10 fold) | 5.00 to 6.00 |  | 
> 7.30 | > 7.00 |  |  | > 7.30 | > 7.30 | > 7.00 | Cc1cc(NC(=O)C(=O)N2C[C@@H](C)CC[C@@H]2c2cccc(N3CCN(C)CC3)c2)cnc1N (single isomer, unassigned) [Compound 1229] |  |  | > 6.00 |  | B (an IC50 ratio greater than or equal to 3 fold but lower than 10 fold)
< 6.30 | < 6.00 |  |  | < 6.30 | < 6.30 | < 6.00 | CNc1nc2cc([C@@H]3CC[C@@H](C)CN3C(=O)C(=O)Nc3cnc(OC)c(C(N)=O)c3)ccc2s1 (single isomer, unassigned) [Compound 875] |  | B (an IC50 ratio greater than or equal to 3 fold but lower than 10 fold) |  | < 5.00 | 
> 7.30 | < 6.00 |  |  | 6.30 to 7.30 | 6.30 to 7.30 | 6.00 to 7.00 | C[C@H]1CC[C@H](c2cc(Cl)cc(Cl)c2)N(C(=O)C(=O)Nc2cncc(C(N)=O)c2)C1 (single isomer, unassigned) [Compound 491] |  | A (an IC50 ratio greater than or equal to 10 fold) | 5.00 to 6.00 |  | 
> 7.30 | 6.00 to 7.00 | > 7.30 | > 7.00 | 6.30 to 7.30 |  |  | CCc1cc(NC(=O)C(=O)N2C[C@@H](C)CC[C@@H]2c2ccc(N3CCOC4(CN(C)C4)C3)cc2)cnc1N (single isomer, unassigned) [Compound 1339] | > 6.00 | A (an IC50 ratio greater than or equal to 10 fold) |  |  | 
6.30 to 7.30 | < 6.00 |  |  | 6.30 to 7.30 | < 6.30 | 6.00 to 7.00 | CNc1cccc([C@@H]2CCCCN2C(=O)C(=O)Nc2cnc(N)c(C)c2)c1 (single isomer, unassigned) [Compound 357] |  | A (an IC50 ratio greater than or equal to 10 fold) | < 5.00 |  | 
> 7.30 | > 7.00 |  |  | 6.30 to 7.30 | > 7.30 | > 7.00 | CCc1cc(NC(=O)C(=O)N2C[C@@H](C)CC[C@@H]2c2ccc3sc(C(C)(C)N(C)C)nc3c2)cnc1N [Compound 1237, N-(6-amino-5-ethylpyridin-3-yl)-2-((2R,5S)-2-(2-(2-(dimethylamino)propan-2-yl)benzo[d]thiazol-5-yl)-5-methylpiperidin-1-yl)-2-oxoacetamide] |  |  | > 6.00 |  | A (an IC50 ratio greater than or equal to 10 fold)
> 7.30 | < 6.00 | < 6.30 | 6.00 to 7.00 | 6.30 to 7.30 |  |  | COc1ncc(NC(=O)C(=O)N2CCCCC2c2ccccc2)cc1C(N)=O (stereo not drawn) [Compound 138, 2-methoxy-5-(2-oxo-2-(2-phenylpiperidin-1-yl)acetamido)nicotinamide] |  | A (an IC50 ratio greater than or equal to 10 fold) | < 5.00 |  | 
> 7.30 | > 7.00 |  | > 7.00 | 6.30 to 7.30 | > 7.30 |  | Cc1cc(NC(=O)C(=O)N2C[C@H](C)CC[C@H]2c2ccc(N3CCN(C)CC3)nc2)cnc1N (single isomer, unassigned) [Compound 1014] |  | B (an IC50 ratio greater than or equal to 3 fold but lower than 10 fold) | > 6.00 |  | 
